Results published in patent publication US9635854B2, “Controlling red rice with mesotrione” (FMC Corporation, priority 2014, dated 2017).
Like-named read-outs stand apart in the source and are kept apart here.

Key:
[1] = tested on: barnyardgrass (Echinochloa crus-galli); assay: Pre-emergent weed control in direct-seeded flooded rice (Example 2); type: in vivo; conditions: 28 Days After Treatment
Text: (§1) Seeds of crops, rice (Taggart and Wells varieties) and weeds, yellow nutsedge (Cyperus esculentus), barnyardgrass (Echinochloa crus-galli), large crabgrass (Digitaria sanguinalis), hemp sesbania (Sesbania herbacea), Benghal dayflower (Commelina benghalensis), red rice (Oryza sativa) and broadleaf signalgrass (Urochloa platyphylla) were planted in two gallon pots containing top soil. Each pot was watered well before the application of mesotrione (Callisto® Herbicide from Syngenta Crop Protection).

red rice (Oryza sativa) = assay: as above; type: in vivo; conditions: for % weed control Red Rice: pre-emergent, flooded, 28 Days After Treatment
Text: as §1

[2] = tested on: hemp sesbania (Sesbania herbacea); assay: as above; type: in vivo; conditions: 28 Days After Treatment
Text: as §1

[3] = tested on: large crabgrass (Digitaria sanguinalis); assay: as above; type: in vivo; conditions: 28 Days After Treatment
Text: as §1

[4] = tested on: broadleaf signalgrass (Urochloa platyphylla); assay: as above; type: in vivo; conditions: 28 Days After Treatment
Text: as §1

[5] = tested on: yellow nutsedge (Cyperus esculentus); assay: as above; type: in vivo; conditions: for % weed control Nutsedge: pre-emergent, flooded, 28 Days After Treatment
Text: as §1

[6] = tested on: Benghal dayflower (Commelina benghalensis); assay: as above; type: in vivo; conditions: 28 Days After Treatment
Text: as §1

[7] = tested on: Rice (Oryza sativa) 'Cybonee'; conditions: PRE, direct-seeded dryland rice
Text: (§2) Rice (Oryza sativa) was planted in 6″ by 10″ fiber flats filled with sterile top soil. Five rows were made in each flat and the three rice varieties (′Cybonee, ‘Jupiter’, and ‘Taggart’) were planted in the center 3 rows and a row of red rice (Oryza sativa) was planted on either end of the flat. The flats were watered after planting. After application flats were placed in the greenhouse and lightly watered. […] The flats were moved to a greenhouse and watered and fertilized routinely. Studies were conducted using randomized complete block design with four replications. In both studies, visual percent red rice control and rice injury were recorded at 14, 21, and 28 days after treatment (DAT), using a scale of 0 (no control/injury) to 100 (complete plant death).

[8] = tested on: Rice (Oryza sativa) 'Taggart'; conditions: PRE, direct-seeded dryland rice
Text: as §2

[9] = tested on: Rice (Oryza sativa) 'Jupiter'; conditions: PRE, direct-seeded dryland rice
Text: as §2

[10] = pre-emergent treatment at 50 g ai/ha, flooded rice test

CS(=O)(=O)c1ccc(C(=O)C2C(=O)CCCC2=O)c([N+](=O)[O-])c1 [Mesotrione, mesotrione]
% weed control Barnyardgrass ([1]; 6 g ai/ha): 10% | % weed control Barnyardgrass ([1]; 12 g ai/ha): 32% | % weed control Barnyardgrass ([1]; 25 g ai/ha): 35% | % weed control Barnyardgrass ([1]; 50 g ai/ha): 62% | % weed control Barnyardgrass ([1]; 100 g ai/ha): 82% | % weed control Barnyardgrass ([1]; 200 g ai/ha): 100% | red rice control (words, FIG. 1) (red rice (Oryza sativa); [10]): controlled | % weed control Red Rice (red rice (Oryza sativa); 6 g ai/ha): 23% | % weed control Red Rice (red rice (Oryza sativa); 12 g ai/ha): 33% | % weed control Red Rice (red rice (Oryza sativa); 25 g ai/ha): 90% | % weed control Red Rice (red rice (Oryza sativa); 50 g ai/ha): 100% | % weed control Red Rice (red rice (Oryza sativa); 100 g ai/ha): 97% | % weed control Red Rice (red rice (Oryza sativa); 200 g ai/ha): 100% | red rice control (red rice (Oryza sativa); summary of Table 7 data): controls | % weed control Hemp ([2]; 6 g ai/ha): 0% | % weed control Hemp ([2]; 12 g ai/ha): 30% | % weed control Hemp ([2]; 25 g ai/ha): 13% | % weed control Hemp ([2]; 50 g ai/ha): 45% | % weed control Hemp ([2]; 100 g ai/ha): 98% | % weed control Hemp ([2]; 200 g ai/ha): 100% | % weed control Crabgrass ([3]; 6 g ai/ha): 70% | % weed control Crabgrass ([3]; 12 g ai/ha): 100% | % weed control Crabgrass ([3]; 25 g ai/ha): 100% | % weed control Crabgrass ([3]; 50 g ai/ha): 100% | % weed control Crabgrass ([3]; 100 g ai/ha): 100% | % weed control Crabgrass ([3]; 200 g ai/ha): 100% | % weed control Signalgrass ([4]; 6 g ai/ha): 23% | % weed control Signalgrass ([4]; 12 g ai/ha): 23% | % weed control Signalgrass ([4]; 25 g ai/ha): 57% | % weed control Signalgrass ([4]; 50 g ai/ha): 90% | % weed control Signalgrass ([4]; 100 g ai/ha): 98% | % weed control Signalgrass ([4]; 200 g ai/ha): 100% | yellow nutsedge control (words, FIG. 1) [5, 10]: controlled | % weed control Nutsedge ([5]; 6 g ai/ha): 38% | % weed control Nutsedge ([5]; 12 g ai/ha): 77% | % weed control Nutsedge ([5]; 25 g ai/ha): 92% | % weed control Nutsedge ([5]; 50 g ai/ha): 97% | % weed control Nutsedge ([5]; 100 g ai/ha): 100% | % weed control Nutsedge ([5]; 200 g ai/ha): 100% | % weed control Dayflower ([6]; 6 g ai/ha): 17% | % weed control Dayflower ([6]; 12 g ai/ha): 63% | % weed control Dayflower ([6]; 25 g ai/ha): 67% | % weed control Dayflower ([6]; 50 g ai/ha): 93% | % weed control Dayflower ([6]; 100 g ai/ha): 83% | % weed control Dayflower ([6]; 200 g ai/ha): 90% | Percent rice injury Cybonet ([7]; 14 DAT, 12.5 g ai/ha): 6 BCD % | Percent rice injury Cybonet ([7]; 14 DAT, 25 g ai/ha): 1 D % | Percent rice injury Cybonet ([7]; 14 DAT, 37.5 g ai/ha): 1 D % | Percent rice injury Cybonet ([7]; 14 DAT, 50 g ai/ha): 1 D % | Percent rice injury Cybonet ([7]; 14 DAT, 62.5 g ai/ha): 4 D % | Percent rice injury Cybonet ([7]; 14 DAT, 75 g ai/ha): 5 CD % | Percent rice injury Cybonet ([7]; 14 DAT, 87.5 g ai/ha): 11 BC % | Percent rice injury Cybonet ([7]; 14 DAT, 100 g ai/ha): 12 B % | Percent rice injury Cybonet ([7]; 21 DAT, 12.5 g ai/ha): 5 DE % | Percent rice injury Cybonet ([7]; 21 DAT, 25 g ai/ha): 1 E % | Percent rice injury Cybonet ([7]; 21 DAT, 37.5 g ai/ha): 1 E % | Percent rice injury Cybonet ([7]; 21 DAT, 50 g ai/ha): 5 DE % | Percent rice injury Cybonet ([7]; 21 DAT, 62.5 g ai/ha): 5 DE % | Percent rice injury Cybonet ([7]; 21 DAT, 75 g ai/ha): 8 BCD % | Percent rice injury Cybonet ([7]; 21 DAT, 87.5 g ai/ha): 12 BC % | Percent rice injury Cybonet ([7]; 21 DAT, 100 g ai/ha): 13 B % | Percent rice injury Cybonet ([7]; 28 DAT, 12.5 g ai/ha): 5 DE % | Percent rice injury Cybonet ([7]; 28 DAT, 25 g ai/ha): 1 E % | Percent rice injury Cybonet ([7]; 28 DAT, 37.5 g ai/ha): 1 E % | Percent rice injury Cybonet ([7]; 28 DAT, 50 g ai/ha): 6 DE % | Percent rice injury Cybonet ([7]; 28 DAT, 62.5 g ai/ha): 9 DE % | Percent rice injury Cybonet ([7]; 28 DAT, 75 g ai/ha): 15 CD % | Percent rice injury Cybonet ([7]; 28 DAT, 87.5 g ai/ha): 25 BC % | Percent rice injury Cybonet ([7]; 28 DAT, 100 g ai/ha): 33 AB % | Percent rice injury Taggart ([8]; 14 DAT, 12.5 g ai/ha): 0 E % | Percent rice injury Taggart ([8]; 14 DAT, 25 g ai/ha): 0 E % | Percent rice injury Taggart ([8]; 14 DAT, 37.5 g ai/ha): 1 E % | Percent rice injury Taggart ([8]; 14 DAT, 50 g ai/ha): 2 DE % | Percent rice injury Taggart ([8]; 14 DAT, 62.5 g ai/ha): 6 C % | Percent rice injury Taggart ([8]; 14 DAT, 75 g ai/ha): 5 CD % | Percent rice injury Taggart ([8]; 14 DAT, 87.5 g ai/ha): 9 BC % | Percent rice injury Taggart ([8]; 14 DAT, 100 g ai/ha): 11 B % | Percent rice injury Taggart ([8]; 21 DAT, 12.5 g ai/ha): 0 C % | Percent rice injury Taggart ([8]; 21 DAT, 25 g ai/ha): 0 C % | Percent rice injury Taggart ([8]; 21 DAT, 37.5 g ai/ha): 1 BC % | Percent rice injury Taggart ([8]; 21 DAT, 50 g ai/ha): 5 BC % | Percent rice injury Taggart ([8]; 21 DAT, 62.5 g ai/ha): 9 BC % | Percent rice injury Taggart ([8]; 21 DAT, 75 g ai/ha): 10 BC % | Percent rice injury Taggart ([8]; 21 DAT, 87.5 g ai/ha): 11 BC % | Percent rice injury Taggart ([8]; 21 DAT, 100 g ai/ha): 13 B % | Percent rice injury Taggart ([8]; 28 DAT, 12.5 g ai/ha): 0 D % | Percent rice injury Taggart ([8]; 28 DAT, 25 g ai/ha): 0 D % | Percent rice injury Taggart ([8]; 28 DAT, 37.5 g ai/ha): 1 D % | Percent rice injury Taggart ([8]; 28 DAT, 50 g ai/ha): 6 CD % | Percent rice injury Taggart ([8]; 28 DAT, 62.5 g ai/ha): 12 BCD % | Percent rice injury Taggart ([8]; 28 DAT, 75 g ai/ha): 23 BC % | Percent rice injury Taggart ([8]; 28 DAT, 87.5 g ai/ha): 29 B % | Percent rice injury Taggart ([8]; 28 DAT, 100 g ai/ha): 50 A % | Percent rice injury Jupiter ([9]; 14 DAT, 12.5 g ai/ha): 0 E % | Percent rice injury Jupiter ([9]; 14 DAT, 25 g ai/ha): 0 E % | Percent rice injury Jupiter ([9]; 14 DAT, 37.5 g ai/ha): 2 DE % | Percent rice injury Jupiter ([9]; 14 DAT, 50 g ai/ha): 3 DE % | Percent rice injury Jupiter ([9]; 14 DAT, 62.5 g ai/ha): 5 CD % | Percent rice injury Jupiter ([9]; 14 DAT, 75 g ai/ha): 8 BC % | Percent rice injury Jupiter ([9]; 14 DAT, 87.5 g ai/ha): 10 BC % | Percent rice injury Jupiter ([9]; 14 DAT, 100 g ai/ha): 11 B % | Percent rice injury Jupiter ([9]; 21 DAT, 12.5 g ai/ha): 0 E % | Percent rice injury Jupiter ([9]; 21 DAT, 25 g ai/ha): 0 E % | Percent rice injury Jupiter ([9]; 21 DAT, 37.5 g ai/ha): 2 DE % | Percent rice injury Jupiter ([9]; 21 DAT, 50 g ai/ha): 6 CDS % | Percent rice injury Jupiter ([9]; 21 DAT, 62.5 g ai/ha): 7 CD % | Percent rice injury Jupiter ([9]; 21 DAT, 75 g ai/ha): 10 BC % | Percent rice injury Jupiter ([9]; 21 DAT, 87.5 g ai/ha): 11 BC % | Percent rice injury Jupiter ([9]; 21 DAT, 100 g ai/ha): 14 B % | Percent rice injury Jupiter ([9]; 28 DAT, 12.5 g ai/ha): 0 D % | Percent rice injury Jupiter ([9]; 28 DAT, 25 g ai/ha): 0 D % | Percent rice injury Jupiter ([9]; 28 DAT, 37.5 g ai/ha): 1 D % | Percent rice injury Jupiter ([9]; 28 DAT, 50 g ai/ha): 6 CD % | Percent rice injury Jupiter ([9]; 28 DAT, 62.5 g ai/ha): 8 CD % | Percent rice injury Jupiter ([9]; 28 DAT, 75 g ai/ha): 21 BC % | Percent rice injury Jupiter ([9]; 28 DAT, 87.5 g ai/ha): 26 B % | Percent rice injury Jupiter ([9]; 28 DAT, 100 g ai/ha): 56 A %
